Like-named read-outs stand apart in the source and are kept apart here.
Tests used:
[1] = Pharmacokinetic test in mice; type: in vivo; settings: male, ICR, mouse, po, administration i.g. (10 mg/kg), plasma
Procedure: Test objective: In this experiment, a single dose of test compounds was administered to ICR mice intravenously and intragastrically, the concentrations of the test compounds in plasma of mice were measured, and the pharmacokinetic characteristics and bioavailability of the test compounds in mice were evaluated.
Experimental animals: male ICR mice, 20-25 g, purchased from BEIJING HFK BIOSCIENCE CO., LTD. with the laboratory animal production license number of SCXK (JING) 2019-0008; or purchased from CHENGDU DDOSSY EXPERIMENTAL ANIMALS CO., LTD. (SCXK (CHUAN) 2020-030); or purchased from HUNAN SJA LABORATORY ANIMAL CO., LTD. (SCXK (XIANG) 2019-0004).
Experimental method: on the day of the experiment, ICR mice were randomly grouped according to their body weights. The mice were fasted with water available for 12 to 14 hours one day before the administration, and were fed 4 hours after the administration.
Sampling: before and after the administration, blood was taken from the orbits of the mice under isoflurane anesthesia, and placed in an EDTAK2 centrifuge tube. Centrifugation was carried out at 5000 rpm at 4° C. for 10 min, and the plasma was collected.
Time points for plasma collection in G1&G2 groups: 0, 5 min, 15 min, 30 min, 1h, 2h, 4h, 6h, 8h, and 24 h; • time points for plasma collection in G3 group: 0, 5 min, 15 min, 30 min, 1 h, 2 h, 4 h, 6h, 8h, and 24 h; • before analysis and detection, all samples were stored at −80° C. The samples were analyzed quantitatively by LC-MS/MS.

[2] = test system: NCI-H1975 (EGFR-L858R-T790M) cells; assay: Inhibitory activity on proliferation of NCI-H1975 (EGFR-L858R-T790M) cells (CTG, 72 h); type: cell-based; settings: Homo sapiens
Procedure, shortened: (§1)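 Cells plated at 1000/well (NCI-H1975, RPMI1640+10% FBS) or 3000/well (A431, DMEM+10% FBS), dosed next day with compounds (0.1% DMSO final) for 72 h at 37 °C, 5% CO2. Viability by CTG luminescence, normalised to vehicle control; IC50 from nonlinear-regression dose-survival curves.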

A431 (EGFR-WT) cells = assay: Inhibitory activity on proliferation of A431 (EGFR-WT) cells (CTG, 72 h); type: cell-based; settings: Homo sapiens, A-431
Procedure, shortened: as §1

[3] = read-out: IC50 (value in brackets)

Compound	AUC(0-t) [1]	IC50 ([2]; read-out: IC50 (class symbol))	IC50 [2, 3]	IC50 (A431 (EGFR-WT) cells)	AUC [1]	half-life [1]
COc1cc(N2CCC(N3CCN(C4CC5(CCN(c6ccc7c(c6)C(=O)N(C6CCC(=O)NC6=O)C7=O)CC5)C4)CC3)CC2)c(-c2cnn(C)c2)cc1Nc1ncc(Br)c(Nc2ccc(-c3ccccc3)cc2P(C)(C)=O)n1 (centres unmarked) [Compound 63, 5-(2-(4-(1-(4-((5-bromo-4-((3-(dimethylphosphoryl)-[1,1′-biphenyl]-4-yl)amino)pyrimidin-2-yl)amino)-5-methoxy-2-(1-methyl-1H-pyrazol-4-yl)phenyl)piperidin-4-yl)piperazin-1-yl)-7-azaspiro[3.5]nonan-7-yl)-2-(2,6-dioxopiperidin-3-yl)isoindoline-1,3-dione]	14700 ng·h/mL	< 100 nM	90 nM	≥ 10000 nM		
COc1cc(N2CCN(c3ccc4c(c3)C(=O)N(C3CCC(=O)NC3=O)C4=O)CC2)c(-c2cnn(C)c2)cc1Nc1ncc(Br)c(Nc2ccc(-c3ccccc3)cc2P(C)(C)=O)n1 (centres unmarked) [Compound 80, 5-(4-(4-((5-bromo-4-((3-(dimethylphosphoryl)-[1,1′-biphenyl]-4-yl)amino)pyrimidin-2-yl)amino)-5-methoxy-2-(1-methyl-1H-pyrazol-4-yl)phenyl)piperazin-1-yl)-2-(2,6-dioxopiperidin-3-yl)isoindoline-1,3-dione]		100 to 500 nM	129 nM	≥ 10000 nM	81900 ng·h/mL	10.4 h
COc1cc(N2CCN(c3ccc4c(c3)C(=O)N(C3CCC(=O)NC3=O)C4=O)CC2)c(-c2cnn(C)c2)cc1Nc1ncc(Cl)c(Nc2ccc(-c3ccccc3)cc2P(C)(C)=O)n1 (centres unmarked) [Compound 98, 5-(4-(4-((5-chloro-4-((3-(dimethylphosphoryl)-[1,1′-biphenyl]-4-yl)amino)pyrimidin-2-yl)amino)-5-methoxy-2-(1-methyl-1H-pyrazol-4-yl)phenyl)piperazin-1-yl)-2-(2,6-dioxopiperidin-3-yl)isoindoline-1,3-dione]		100 to 500 nM	101 nM	≥ 10000 nM	69800 ng·h/mL	10.9 h

Second part, the compound after the results:

AUC(0-t) [1]	IC50 ([2]; read-out: IC50 (class symbol))	IC50 [2, 3]	IC50 (A431 (EGFR-WT) cells)	AUC [1]	half-life [1]	Compound
16400 ng·h/mL	< 100 nM	31 nM	≥ 10000 nM			COc1cc(N2CCC(N3CCN(CC4CCN(c5ccc6c(c5)C(=O)N(C5CCC(=O)NC5=O)C6=O)CC4)CC3)CC2)c(-c2cnn(C)c2)cc1Nc1ncc(Cl)c(Nc2ccc3ccccc3c2P(C)(C)=O)n1 (centres unmarked) [Compound 72, 5-(4-((4-(1-(4-((5-chloro-4-((1-(dimethylphosphoryl)naphthalen-2-yl)amino)pyrimidin-2-yl)amino)-5-methoxy-2-(1-methyl-1H-pyrazol-4-yl)phenyl)piperidin-4-yl)piperazin-1-yl)methyl)piperidin-1-yl)-2-(2,6-dioxopiperidin-3-yl)isoindoline-1,3-dione]
5120 ng·h/mL	< 100 nM	67 nM	≥ 10000 nM			COc1cc(N2CCC(N3CCC4(CCCN(c5cc6c(cc5F)C(=O)N(C5CCC(=O)NC5=O)C6=O)C4)CC3)CC2)c(-c2cnn(C)c2)cc1Nc1ncc(Br)c(Nc2ccc(-c3ccccc3)cc2P(C)(C)=O)n1 (centres unmarked) [Compound 88, 5-(9-(1-(4-((5-bromo-4-((3-(dimethylphosphoryl)-[1,1′-biphenyl]-4-yl)amino)pyrimidin-2-yl)amino)-5-methoxy-2-(1-methyl-1H-pyrazol-4-yl)phenyl)piperidin-4-yl)-2,9-diazaspiro[5.5]undecan-2-yl)-2-(2,6-dioxopiperidin-3-yl)-6-fluoroisoindoline-1,3-dione]
3730 ng·h/mL	< 100 nM	60 nM	≥ 10000 nM			COc1cc(N2CCC(CN3CCC4(CCCN(c5ccc6c(c5)C(=O)N(C5CCC(=O)NC5=O)C6=O)C4)CC3)CC2)c(-c2cnn(C)c2)cc1Nc1ncc(Br)c(Nc2ccc(-c3ccccc3)cc2P(C)(C)=O)n1 (centres unmarked) [Compound 38, 5-(9-((1-(4-((5-bromo-4-((3-(dimethylphosphoryl)-[1,1′-biphenyl]-4-yl)amino)pyrimidin-2-yl)amino)-5-methoxy-2-(1-methyl-1H-pyrazol-4-yl)phenyl)piperidin-4-yl)methyl)-2,9-diazaspiro[5.5]undecan-2-yl)-2-(2,6-dioxopiperidin-3-yl)isoindoline-1,3-dione]

— patent US20240269298A1, “PHOSPHONYL DERIVATIVE, AND COMPOSITION AND PHARMACEUTICAL APPLICATION THEREOF” (XIZANG HAISCO PHARMACEUTICAL CO., LTD., priority 2021, published 2024)
